Experimental data taken from patent publication US20230257372A1 (CHONG KUN DANG PHARMACEUTICAL CORP., priority 2020, published 2023).

What was measured:
human recombinant HDAC6 = biological target: T1, human recombinant HDAC6 (Homo sapiens, UniProt Q9UBN7); assay: HDAC6 enzyme activity inhibition (HDAC Fluorimetric Drug Discovery Kit); type: biochemical; conditions: for HDAC6 selectivity (fold): HDAC6 over HDAC1; for IC50: human recombinant HDAC6, same protocol as HDAC1
T1 construct: purchased Calbiochem Inc. 382180
T1 sequence (Q9UBN7 1-1215): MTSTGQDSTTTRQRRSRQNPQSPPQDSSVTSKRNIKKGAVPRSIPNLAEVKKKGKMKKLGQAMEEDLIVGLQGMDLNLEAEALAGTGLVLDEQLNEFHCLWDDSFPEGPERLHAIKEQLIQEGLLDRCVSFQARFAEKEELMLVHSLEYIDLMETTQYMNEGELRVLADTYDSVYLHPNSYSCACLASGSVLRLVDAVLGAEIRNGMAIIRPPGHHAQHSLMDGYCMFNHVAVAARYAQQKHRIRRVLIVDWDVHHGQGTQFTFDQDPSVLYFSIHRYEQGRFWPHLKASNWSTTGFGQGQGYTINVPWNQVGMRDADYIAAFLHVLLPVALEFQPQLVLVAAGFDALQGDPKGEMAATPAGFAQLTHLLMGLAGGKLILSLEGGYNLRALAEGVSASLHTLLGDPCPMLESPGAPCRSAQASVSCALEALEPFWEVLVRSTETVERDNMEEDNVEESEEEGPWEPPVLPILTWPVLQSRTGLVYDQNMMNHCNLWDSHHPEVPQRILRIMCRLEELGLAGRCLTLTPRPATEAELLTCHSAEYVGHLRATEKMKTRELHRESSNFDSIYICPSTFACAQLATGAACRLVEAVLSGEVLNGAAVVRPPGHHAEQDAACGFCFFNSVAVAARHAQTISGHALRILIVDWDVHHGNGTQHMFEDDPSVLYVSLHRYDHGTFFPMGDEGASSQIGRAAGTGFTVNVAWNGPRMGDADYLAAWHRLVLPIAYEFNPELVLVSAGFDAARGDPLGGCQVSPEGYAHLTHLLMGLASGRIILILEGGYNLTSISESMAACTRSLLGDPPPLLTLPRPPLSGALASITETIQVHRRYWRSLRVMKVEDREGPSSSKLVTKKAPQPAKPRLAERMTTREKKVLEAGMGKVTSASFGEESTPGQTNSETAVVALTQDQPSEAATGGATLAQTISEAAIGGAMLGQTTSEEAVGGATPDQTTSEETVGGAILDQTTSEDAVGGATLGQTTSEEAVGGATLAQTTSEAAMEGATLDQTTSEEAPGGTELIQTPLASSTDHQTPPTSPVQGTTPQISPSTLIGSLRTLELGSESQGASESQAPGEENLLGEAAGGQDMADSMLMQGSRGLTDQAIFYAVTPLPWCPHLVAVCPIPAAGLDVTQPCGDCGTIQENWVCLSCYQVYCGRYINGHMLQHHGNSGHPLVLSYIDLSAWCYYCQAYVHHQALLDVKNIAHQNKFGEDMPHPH
In short: (§1)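 Five-fold compound dilutions incubated with […] recombinant enzyme and 10 μM fluorogenic Fluor de Lys substrate, 60 min at 30° C. Fluor de Lys Developer II then added for 30 min to generate the fluorescent read-out.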

human recombinant HDAC1 = biological target: T2, human recombinant HDAC1 (Homo sapiens, UniProt Q13547); assay: HDAC1 enzyme activity inhibition (HDAC Fluorimetric Drug Discovery Kit); type: biochemical; conditions: human recombinant HDAC1, Fluor de Lys substrate, 30° C. 60 minutes; read-out: HDAC1
T2 construct: purchased Enzo Life Science, Inc. BML-SE456
T2 sequence (Q13547 whole entry): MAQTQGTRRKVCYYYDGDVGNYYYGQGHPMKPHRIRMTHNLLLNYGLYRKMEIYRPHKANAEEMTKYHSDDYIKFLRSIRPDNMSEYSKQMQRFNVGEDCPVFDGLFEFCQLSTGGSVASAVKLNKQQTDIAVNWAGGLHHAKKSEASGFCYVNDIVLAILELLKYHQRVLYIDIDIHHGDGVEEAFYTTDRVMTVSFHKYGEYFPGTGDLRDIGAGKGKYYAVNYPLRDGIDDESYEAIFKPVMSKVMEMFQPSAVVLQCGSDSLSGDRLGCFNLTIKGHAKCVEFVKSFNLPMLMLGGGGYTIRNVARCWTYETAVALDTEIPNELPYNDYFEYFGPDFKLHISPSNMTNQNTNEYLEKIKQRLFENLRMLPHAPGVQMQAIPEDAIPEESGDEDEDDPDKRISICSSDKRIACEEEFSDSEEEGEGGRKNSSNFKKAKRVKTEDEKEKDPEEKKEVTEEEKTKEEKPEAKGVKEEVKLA
In short: as §1

Row | HDAC6 selectivity (fold) (human recombinant HDAC6) | IC50 (human recombinant HDAC6) | IC50 (human recombinant HDAC1) | Structure (SMILES)
1 | 2392 fold | 20.9 nM | > 50000 nM | CC(C)N1CC(c2cccc(-c3cn(Cc4ccc(-c5nnc(C(F)F)o5)cc4)nn3)c2)C1 [Compound 4509, 2-(difluoromethyl)-5-(4-((4-(3-(1-isopropylazetidin-3-yl)phenyl)-1H-1,2,3-triazol-1-yl)methyl)phenyl)-1,3,4-oxadiazole]
2 | 2173 fold | 23 nM | > 50000 nM | FC(F)c1nnc(-c2ccc(Cn3cc(-c4cccc(C5CN(C6CCC6)C5)c4)nn3)cc2)o1 [Compound 4510, 2-(4-((4-(3-(1-cyclobutylazetidin-3-yl)phenyl)-1H-1,2,3-triazol-1-yl)methyl)phenyl)-5-(difluoromethyl)-1,3,4-oxadiazole]
3 | 325 fold | 64.2 nM | > 50000 nM | FC(F)c1nnc(-c2ccc(Cn3cc(-c4cccc(C5CN(C6COC6)C5)c4)nn3)cc2)o1 [Compound 4511, 2-(difluoromethyl)-5-(4-((4-(3-(1-(oxetan-3-yl)azetidin-3-yl)phenyl)-1H-1,2,3-triazol-1-yl)methyl)phenyl)-1,3,4-oxadiazole]
4 | 495 fold | 101 nM | > 50000 nM | CN1Cc2ccc(-c3cn(Cc4ccc(-c5nnc(C(F)F)o5)cc4)nn3)cc2C1 [Compound 4513, 2-(difluoromethyl)-5-(4-((4-(2-methylisoindolin-5-yl)-1H-1,2,3-triazol-1-yl)methyl)phenyl)-1,3,4-oxadiazole]
5 | 900 fold | 55.5 nM | > 50000 nM | CN1Cc2ccc(-c3cn(Cc4ccc(-c5nnc(C(F)F)o5)cc4F)nn3)cc2C1 [Compound 4515, 2-(difluoromethyl)-5-(3-fluoro-4-((4-(2-methylisoindolin-5-yl)-1H-1,2,3-triazol-1-yl)methyl)phenyl)-1,3,4-oxadiazole]
6 | 680 fold | 73.5 nM | > 50000 nM | CCN1Cc2ccc(-c3cn(Cc4ccc(-c5nnc(C(F)F)o5)cc4F)nn3)cc2C1 [Compound 4516, 2-(difluoromethyl)-5-(4-((4-(2-ethylisoindolin-5-yl)-1H-1,2,3-triazol-1-yl)methyl)-3-fluorophenyl)-1,3,4-oxadiazole]
7 | 986 fold | 50.7 nM | > 50000 nM | Fc1cc(-c2nnc(C(F)F)o2)ccc1Cn1cc(-c2ccc3c(c2)CN(C2CCC2)C3)nn1 [Compound 4518, 2-(4-((4-(2-cyclobutylisoindolin-5-yl)-1H-1,2,3-triazol-1-yl)methyl)-3-fluorophenyl)-5-(difluoromethyl)-1,3,4-oxadiazole]
8 | 994 fold | 50.3 nM | > 50000 nM | Fc1cc(-c2nnc(C(F)F)o2)ccc1Cn1cc(-c2ccc3c(c2)CN(C2COC2)C3)nn1 [Compound 4519, 2-(difluoromethyl)-5-(3-fluoro-4-((4-(2-(oxetan-3-yl)isoindolin-5-yl)-1H-1,2,3-triazol-1-yl)methyl)phenyl)-1,3,4-oxadiazole]
9 | 4464 fold | 11.2 nM | > 50000 nM | Fc1cc(-c2nnc(C(F)F)o2)ccc1Cn1cc(-c2ccc(CN3CCCC3)cc2)nn1 [Compound 4521, 2-(difluoromethyl)-5-(3-fluoro-4-((4-(4-(pyrrolidin-1-ylmethyl)phenyl)-1H-1,2,3-triazol-1-yl)methyl)phenyl)-1,3,4-oxadiazole]
10 | 4504 fold | 11.1 nM | > 50000 nM | Fc1cc(-c2nnc(C(F)F)o2)ccc1Cn1cc(-c2ccc(CN3CC4(COC4)C3)cc2)nn1 [Compound 4523, 6-(4-(1-(4-(5-(difluoromethyl)-1,3,4-oxadiazol-2-yl)-2-fluorobenzyl)-1H-1,2,3-triazol-4-yl)benzyl)-2-oxa-6-azaspiro[3.3]heptane]
11 | 6024 fold | 8.3 nM | > 50000 nM | Fc1cc(-c2nnc(C(F)F)o2)ccc1Cn1cc(-c2cnc3[nH]ccc3c2)nn1 [Compound 4524, 2-(4-((4-(1H-pyrrolo[2,3-b]pyridin-5-yl)-1H-1,2,3-triazol-1-yl)methyl)-3-fluorophenyl)-5-(difluoromethyl)-1,3,4-oxadiazole]
12 | 5681 fold | 8.8 nM | > 50000 nM | FC(F)c1nnc(-c2ccc(Cn3cc(-c4cnc5[nH]ccc5c4)nn3)cc2)o1 [Compound 4525, 2-(4-((4-(1H-pyrrolo[2,3-b]pyridin-5-yl)-1H-1,2,3-triazol-1-yl)methyl)phenyl)-5-(difluoromethyl)-1,3,4-oxadiazole]
13 | 3846 fold | 13 nM | > 50000 nM | Fc1cc(-c2nnc(C(F)F)o2)ccc1Cn1cc(-c2ccnc3[nH]ccc23)nn1 [Compound 4526, 2-(4-((4-(1H-pyrrolo[2,3-b]pyridin-4-yl)-1H-1,2,3-triazol-1-yl)methyl)-3-fluorophenyl)-5-(difluoromethyl)-1,3,4-oxadiazole]
14 | 4310 fold | 11.6 nM | > 50000 nM | FC(F)c1nnc(-c2ccc(Cn3cc(-c4ccnc5[nH]ccc45)nn3)cc2)o1 [Compound 4527, 2-(4-((4-(1H-pyrrolo[2,3-b]pyridin-4-yl)-1H-1,2,3-triazol-1-yl)methyl)phenyl)-5-(difluoromethyl)-1,3,4-oxadiazole]
15 | 371 fold | 135 nM | > 50000 nM | CN1CC(c2cccc(-c3cn(Cc4ccc(-c5nnc(C(F)F)o5)cc4)nn3)c2)C1 [Compound 4528, 2-(difluoromethyl)-5-(4-((4-(3-(1-methylazetidin-3-yl)phenyl)-1H-1,2,3-triazol-1-yl)methyl)phenyl)-1,3,4-oxadiazole]
16 | 313 fold | 160 nM | > 50000 nM | CN1Cc2cccc(-c3cn(Cc4ccc(-c5nnc(C(F)F)o5)cc4)nn3)c2C1 [Compound 4529, 2-(difluoromethyl)-5-(4-((4-(2-methylisoindolin-4-yl)-1H-1,2,3-triazol-1-yl)methyl)phenyl)-1,3,4-oxadiazole]
17 | 449 fold | 111 nM | > 50000 nM | CCN1Cc2cccc(-c3cn(Cc4ccc(-c5nnc(C(F)F)o5)cc4)nn3)c2C1 [Compound 4530, 2-(difluoromethyl)-5-(4-((4-(2-ethylisoindolin-4-yl)-1H-1,2,3-triazol-1-yl)methyl)phenyl)-1,3,4-oxadiazole]
18 | 412 fold | 121 nM | > 50000 nM | CC(C)N1Cc2cccc(-c3cn(Cc4ccc(-c5nnc(C(F)F)o5)cc4)nn3)c2C1 [Compound 4531, 2-(difluoromethyl)-5-(4-((4-(2-isopropylisoindolin-4-yl)-1H-1,2,3-triazol-1-yl)methyl)phenyl)-1,3,4-oxadiazole]
19 | 327 fold | 153 nM | > 50000 nM | FC(F)c1nnc(-c2ccc(Cn3cc(-c4cccc5c4CN(C4CCC4)C5)nn3)cc2)o1 [Compound 4532, 2-(4-((4-(2-cyclobutylisoindolin-4-yl)-1H-1,2,3-triazol-1-yl)methyl)phenyl)-5-(difluoromethyl)-1,3,4-oxadiazole]
20 | 318 fold | 157 nM | > 50000 nM | FC(F)c1nnc(-c2ccc(Cn3cc(-c4cccc5c4CN(C4COC4)C5)nn3)cc2)o1 [Compound 4533, 2-(difluoromethyl)-5-(4-((4-(2-(oxetan-3-yl)isoindolin-4-yl)-1H-1,2,3-triazol-1-yl)methyl)phenyl)-1,3,4-oxadiazole]
21 | 529 fold | 94.4 nM | > 50000 nM | CN1Cc2cccc(-c3cn(Cc4ccc(-c5nnc(C(F)F)o5)cc4F)nn3)c2C1 [Compound 4534, 2-(difluoromethyl)-5-(3-fluoro-4-((4-(2-methylisoindolin-4-yl)-1H-1,2,3-triazol-1-yl)methyl)phenyl)-1,3,4-oxadiazole]
